This note sets out measurements from BindingDB's records for PubMed 10617681 (Dupont Pharmaceuticals, 2000).

For assay [1], the target named is 5-hydroxytryptamine receptor 2B (Homo sapiens, UniProt P41595).
Assay [2] addresses T1, 5-hydroxytryptamine receptor 2C (Homo sapiens, UniProt P28335).
T1 sequence (P28335 whole entry): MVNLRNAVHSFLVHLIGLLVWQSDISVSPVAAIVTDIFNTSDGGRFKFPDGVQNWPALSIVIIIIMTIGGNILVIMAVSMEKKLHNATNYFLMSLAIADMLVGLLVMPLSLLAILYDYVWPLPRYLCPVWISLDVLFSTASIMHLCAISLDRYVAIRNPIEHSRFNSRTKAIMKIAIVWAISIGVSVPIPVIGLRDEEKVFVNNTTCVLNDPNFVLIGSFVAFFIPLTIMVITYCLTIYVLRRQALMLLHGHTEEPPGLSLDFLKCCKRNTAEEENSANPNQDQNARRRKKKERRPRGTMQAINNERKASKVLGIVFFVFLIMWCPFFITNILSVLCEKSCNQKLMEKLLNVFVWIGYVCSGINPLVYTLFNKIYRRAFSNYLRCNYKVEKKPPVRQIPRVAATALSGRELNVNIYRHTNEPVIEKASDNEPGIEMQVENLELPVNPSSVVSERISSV

Chain of 5-hydroxytryptamine receptor 2B (P41595 whole entry): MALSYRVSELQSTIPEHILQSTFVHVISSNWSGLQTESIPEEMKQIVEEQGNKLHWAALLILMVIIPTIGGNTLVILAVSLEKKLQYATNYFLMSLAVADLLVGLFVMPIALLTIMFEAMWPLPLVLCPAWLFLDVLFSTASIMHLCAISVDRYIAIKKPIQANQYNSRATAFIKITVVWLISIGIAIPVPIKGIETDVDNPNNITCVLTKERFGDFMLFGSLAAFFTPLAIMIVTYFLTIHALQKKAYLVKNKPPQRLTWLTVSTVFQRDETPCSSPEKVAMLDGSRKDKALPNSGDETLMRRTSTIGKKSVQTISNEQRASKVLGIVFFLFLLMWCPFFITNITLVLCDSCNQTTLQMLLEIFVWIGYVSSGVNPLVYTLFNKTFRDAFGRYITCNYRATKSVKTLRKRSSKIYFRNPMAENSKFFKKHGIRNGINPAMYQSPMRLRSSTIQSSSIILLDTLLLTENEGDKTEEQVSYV

The Ki is a dissociation constant, usually derived from enzyme kinetics or from competition with a known ligand. Take `C[C@H](N)Cc1cccc(C(F)(F)F)c1` [Norfenfluramine (+)]: the Ki came to 27 nM in assay [1] and 56 nM in assay [2].

For the molecule `C[C@@H](N)Cc1cccc(C(F)(F)F)c1` [l-norfenfluramine], the results for the inhibitory constant (Ki) in assay [1] and in assay [2] were 65 nM and 99 nM, respectively.
